# Earlier results in US20060009468A1, “Method for treatment of cancer” (priority 2004, published 2006).
# How the values were obtained:
# PANC-1 cells = conditions: after 72 hrs of exposure
# MIA PaCa-2 cells = conditions: after 72 hrs of exposure
smiles,measurement,setting,value
"N=C(N)NOCC[C@H](N)C(=O)O [L-canavanine, L-Canavanine]","increase of the percentage of cells in the radiosensitive G2/M phase of the cell cycle, compared to untreated cells",PANC-1 cells,6 fold
same,"increase of the percentage of cells in the radiosensitive G2/M phase of the cell cycle, compared to untreated cells",MIA PaCa-2 cells,4 fold
